Source: paper PMC7312485, “Lessons on the Sigma-1 Receptor in TNBS-Induced Rat Colitis: Modulation of the UCHL-1, IL-6 Pathway” (International Journal of Molecular Sciences, 2020)

Columns and labels:
TNBS-induced rat colitis = test: Severity of inflammation (macroscopic lesion area by planimetry) in TNBS-induced colitis; type: in vivo; conditions: TNBS group 61.68 ± […]
Experimental: (§1) Animals were randomly divided into 3 groups: absolute control (no treatment, n = 12), 50% EtOH (ethanol enema, n = 12), and TNBS (10 mg dissolved in 50% Ethanol, n = 85). Colitis was assessed following Morris’ method. Animals fasted overnight and a TNBS enema was administered intracolonically (i.c.) with an 8cm long polyethylene canulla through the anus under mild anesthesia (Thiopental, i.p. 40 mg/kg). […] Animals were fasted for 5 h each day before i.c. treatments.
(§2) After 72 h of TNBS administration, euthanized animals (Thiopental, i.p. 100 mg/kg) were sacrificed and the last 8 cm portion of the colon was removed, gently opened, rinsed in physiological saline and photographed for further macroscopic analysis. Then, the colon segments were frozen in liquid nitrogen. Frozen colon tissues were powdered in liquid nitrogen by using a porcelain mortar and pestle and kept at −80 °C until used for biochemical measurements.
The extent of macroscopically apparent inflammation, ulceration and tissue disruption was determined in a randomized manner from the colored images, using proprietary computerized planimetry software which was developed in our laboratory (Stat_2_1_1, Szeged, Hungary) and is based on planimetrics. The area of macroscopically visible mucosal damage was calculated and expressed as a % of the total studied 8 cm colonic segment.

sigma-1 receptor (σ1R) [1] = test: Western blot of sigma-1 receptor expression in colon, TNBS colitis; type: in vivo, rat
Experimental: (§3) Male Wistar–Harlan rats (225–250 g) were purchased from Toxicoop Ltd. (Dunakeszi, Hungary) and housed in a room with acclimatized temperature under 12h day/night cycles with food and water ad libitum. Animals were randomly divided into 3 groups: absolute control (no treatment, n = 12), 50% EtOH (ethanol enema, n = 12), and TNBS (10 mg dissolved in 50% Ethanol, n = 85). Colitis was assessed following Morris’ method. Animals fasted overnight and a TNBS enema was administered intracolonically (i.c.) with an 8cm long polyethylene canulla through the anus under mild anesthesia (Thiopental, i.p. 40 mg/kg). […]
(§4) In total, 30 mg from each powdered sample was measured and suspended in RIPA buffer (Merck Millipore, Burlington, MA, USA) supplemented with phenylmethylsulfonyl fluoride (PMSF) (Sigma-Aldrich, Budapest, Hungary); 1/10 of the final volume. […] The supernatant was collected and protein concentration was determined by using a Bradford assay and bovine serum albumin as a standard. […] Results were analyzed using Quantity One Software version 4.5 (Bio-Rad Laboratories, Hercules, CA, USA). […]

[2] = test system: myeloperoxidase enzyme (MPO); test: Myeloperoxidase activity in colon, TNBS colitis; type: in vivo, rat
Experimental: as §1, §2
To further break the membranes, three freeze–thaw cycles were applied in liquid nitrogen and a 37 °C water bath. Homogenates then were centrifuged at 10,000× g for 15 min at 4 °C. […] The reaction was started with the addition of 10 µL 0.03% hydrogen peroxide (H2O2). After shaking for 90 s, MPO activity was assayed spectrophotometrically at 490 nm (Benchmark Microplate Reader, Bio-Rad Laboratories, Hercules, CA, USA). MPO activity was expressed as uU/mg protein.

IL-6 = IL-6 levels in colon by ELISA, TNBS colitis; type: in vivo, rat
Experimental: as §3
(§5) To determine the tissue levels of IL-6 and eNOS in the colon, we used double-antibody sandwich ELISA kits specific for rat IL-6 or eNOS. eNOS kit was purchased from MyBioSource (MBS721860; San Diego, CA, USA) and IL-6 was purchased from GenAsia Biotech Co., Ltd. (Shanghai, China). […] Parameters were measured according to the manufacturer’s instructions and protocols, and optical densities (OD) were assayed at λ = 450 nm. […]

[3] = test system: heme oxygenase enzyme (HO); test: Heme oxygenase activity (bilirubin formation) in colon, TNBS colitis; type: in vivo, rat; conditions: TNBS group 0.26 ± 0.03
Experimental: as §1, §2

iNOS = test: Western blot of iNOS expression in colon, TNBS colitis; type: in vivo, rat
Experimental: as §3, §4

NF-κB p65 subunit = test: Western blot of NF-κB p65 expression in colon, TNBS colitis; type: in vivo, rat; conditions: TNBS group 0.83 ± 0.09
Experimental: as §3, §4

HMGB1 = test: Western blot of HMGB1 expression in colon, TNBS colitis; type: in vivo, rat; conditions: TNBS group 1.75 ± 0.165
Experimental: as §3, §4

sigma-1 receptor (σ1R) [4] = biological target: T1, sigma-1 receptor (σ1R) (Rattus norvegicus, UniProt Q9R0C9); test: [3H](+)-pentazocine saturation binding in rat colon membranes; conditions: TNBS-induced colitis rat colon membranes after 1 mg/kg FLV administration (TNBS + FLV)
T1 construct: from tissue; host or cells: rat colon membrane homogenate (male Wistar–Harlan rats; control, TNBS, 50% EtOH, TNBS + FLV treated)
T1 sequence (Q9R0C9 whole entry): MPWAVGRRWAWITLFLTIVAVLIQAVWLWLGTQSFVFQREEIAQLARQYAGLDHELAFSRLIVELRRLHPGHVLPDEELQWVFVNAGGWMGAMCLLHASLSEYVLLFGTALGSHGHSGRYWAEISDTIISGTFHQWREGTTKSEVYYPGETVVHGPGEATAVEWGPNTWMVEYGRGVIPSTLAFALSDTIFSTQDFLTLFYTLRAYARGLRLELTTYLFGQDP
Experimental: The homogenate was centrifuged at 17,000× g for 10 min (4 °C).
The incubation was terminated by diluting the samples with an ice-cold wash buffer (50 mM of Tris–HCl, pH 8.0), followed by repeated washing and rapid filtration through Whatman GF/B glass fiber filters (Whatman Ltd., Maidstone, UK) presoaked with 0.1% polyethyleneimine. Filtration was performed with a 24-well Brandel Cell Harvester (Gaithersburg, MD, USA). Filters were air-dried and immersed into Ultima Gold MV scintillation cocktail, and then radioactivity was measured with a TRI-CARB 2100TR liquid scintillation analyzer (Packard, Perkin Elmer, Waltham, MA, USA).
All data are presented as mean ± SEM. […] In competition binding studies, the inhibitory constants (Ki) were calculated from the inflection points of the displacement curves using nonlinear least-square curve fitting and the Cheng–Prusoff equation, Ki = EC50/(1 + [ligand]/Kd).

UCHL-1 = test: Western blot of UCHL-1 expression in colon, TNBS colitis; type: in vivo, rat; conditions: FLV 1 mg/kg i.c.; TNBS group 1.23 ± 0.16
Experimental: as §3, §4

eNOS = eNOS levels in colon by ELISA, TNBS colitis; type: in vivo, rat; conditions: FLV 1 mg/kg i.c.; TNBS group 2.62 ± 0.126
Experimental: as §3, §5

CN1CCN(CCc2ccc(Cl)c(Cl)c2)CC1 [BD1063]
Severity of inflammation (area of mucosal damage, % of 8 cm colonic segment) (TNBS-induced rat colitis; 0.1 mg/kg BD1063 i.c. once a day): 76.77 ± 2.52% | σ1R expression vs. TNBS group (sigma-1 receptor (σ1R) [1]; BD1063 0.1 mg/kg i.c.): didn’t affect the expression of the receptor | MPO activity vs. TNBS group ([2]; BD1063 0.1 mg/kg i.c.): didn’t affect the activity of the MPO | IL-6 levels vs. TNBS group (IL-6; BD1063 0.1 mg/kg i.c.): didn’t affect IL-6 levels | HO enzyme activity ([3]; BD1063 0.1 mg/kg i.c.): 0.40 ± 0.04 nmol bilirubin/h/mg protein | iNOS expression vs. TNBS group (iNOS; BD1063 0.1 mg/kg i.c.): did not alter the expression of iNOS | NF-κB p65 subunit expression (normalized to β-actin) (NF-κB p65 subunit; BD1063 0.1 mg/kg i.c.): 0.48 ± 0.03 relative expression | HMGB1 expression (normalized to β-actin) (HMGB1; BD1063 0.1 mg/kg i.c.): 1.305 ± 0.044 relative expressions

COCCCC/C(=N\OCCN)c1ccc(C(F)(F)F)cc1 [FLV, Fluvoxamine]
Bmax ± S.E.M., saturation binding (σ1R density) (sigma-1 receptor (σ1R) [4]): 134 ± 14 fmol/mg | Severity of inflammation (area of mucosal damage, % of 8 cm colonic segment) (TNBS-induced rat colitis; 0.1 mg/kg FLV i.c. once a day, 72 h after TNBS): 41.23 ± 5.76% | Severity of inflammation (area of mucosal damage, % of 8 cm colonic segment) (TNBS-induced rat colitis; 1 mg/kg i.c. once a day, 72 h after TNBS): 28.29 ± 2.53% | σ1R expression (normalized to β-actin) (sigma-1 receptor (σ1R) [1]; FLV 1 mg/kg i.c., TNBS group 0.326 ± 0.05): 0.72 ± 0.083 relative expression | MPO activity ([2]; FLV 1 mg/kg i.c., TNBS group 42653.4 ± 3220.24): 25021.2 ± 2554.66 uU/mg protein | UCHL-1 expression (normalized to β-actin) (UCHL-1): 2.104 ± 0.13 relative expression | IL-6 levels in colon (IL-6; FLV 1 mg/kg i.c., TNBS group 60.48 ± 4.55): 30.53 ± 4.10 ng/L | HO enzyme activity ([3]; FLV 1 mg/kg i.c.): 0.40 ± 0.03 nmol bilirubin/h/mg protein | eNOS levels (eNOS): 4.21 ± 0.66 relative expression | iNOS expression (normalized to β-actin) (iNOS; FLV 1 mg/kg i.c., TNBS group 0.53 ± 0.02): 0.255 ± 0.11 relative expression | NF-κB p65 subunit expression (normalized to β-actin) (NF-κB p65 subunit; FLV 1 mg/kg i.c.): 0.52 ± 0.04 relative expression | HMGB1 expression (normalized to β-actin) (HMGB1; FLV 1 mg/kg i.c.): 1.264 ± 0.07 relative expressions

O=C(O)c1cc(/N=N/c2ccc(S(=O)(=O)Nc3ccccn3)cc2)ccc1O [SASP, Sulfasalazine]
Severity of inflammation (area of mucosal damage, % of 8 cm colonic segment) (TNBS-induced rat colitis; positive control, 2 × 25 mg/kg per os): 35.78 ± 2.83%
